This is an account of results in article PMC10154249, “Unique progerin C-terminal peptide ameliorates Hutchinson–Gilford progeria syndrome phenotype by rescuing BUBR1” (Nature Aging, 2023).

Common to all, as to format: cell-based, human
Series [1] concerns HGPS cells. Kind of series: Cellular uptake of FITC-modified UPCP. As for the experimental part: Fibroblasts from patients with HGPS were obtained from The Progeria Research Foundation Cell and Tissue Bank (http://www.progeriaresearch.org). The following fibroblasts were used: HGADFN003, HGADFN167, HGMDFN090 and HGFDFN168. Human dermal fibroblasts (GM00038 and AG09602) were obtained from Coriell Cell Repository (https://catalog.coriell.org). These cells were characterized by DNA fingerprinting and isozyme detection and were tested by a MycoBlue Mycoplasma Detector (Vazyme Biotech) to exclude mycoplasma contamination before the experiments. […] HGADFN003, HGADFN167, HGMDFN090, HGFDFN168, GM00038 and AG09602 were cultured in DMEM medium with 15% (v/v) fetal bovine serum (VivaCell). […] For bleomycin-induced senescence, IMR90 cells were incubated with the culture medium containing 20 μg ml^–1 Bleomycin (Selleck, catalog no. S1214) for 2 h and analyzed 10 days later, or as otherwise indicated. For doxorubicin-induced senescence, IMR90 cells were treated twice with 100 nM Doxorubicin (Selleck, catalog no. S1208) with a 2 day interval and analyzed 10 days later, or as otherwise indicated. For ionizing radiation (IR)-induced senescence, IMR90 cells were exposed to 10 Gy Gamma rays, and analyzed 10 days later, or as otherwise indicated, the control IMR90 cells were mock irradiated. […]

The subject of series [2] is HGADFN167 cells. Description: Ki67 immunofluorescence of HGADFN167 cells. On the procedure:
(§1) Immunofluorescence was performed as described previously. Cells were plated on cover slips in 12-well plates, left overnight before the treatment. Cells were fixed in 1% formaldehyde in culture medium for 10 min at 37 °C and permeabilized with 0.2% Triton X-100 in PBS for 10 min at room temperature. Cells were washed twice in PBS and blocked for 1 h with 5% BSA in PBS and then incubated with primary antibodies at 4 °C overnight, washed three times in PBS and incubated with secondary antibodies for 1 h at room temperature. Cell nuclei were counterstained with a 500 nM concentration of 4,6-diamidino-2-phenylindole (DAPI) (Sigma). Images were acquired by a fluorescence microscope (OLYMPUS FV-1000, Carl Zeiss LSM880 or Leica DMi8) and analyzed with software NIS-Elements AR v.5.0.1 (Nikon), FLUOVIEW v.4.2b (OLYMPUS), ZEN v.2.3 SP1 (Carl Zeiss) and Leica Application Suite X v.3.6.0.24 (Leica). Cells were quantified by investigators who were blinded to the identity of the analyzed cell.

The subject of series [3] is IMR90 cells. Kind of series: Etoposide-, Ras- and H2O2-induced early stage senescence of IMR90 cells. Particulars: IMR90, UPCP 6 μM, another 5 days; SA-β-gal, Ki67, Western blot. From the text: HGPS is an extremely rare congenital genetic disease, and its treatments are still under theoretical research. […] Also, to investigate the role of UPCP on other senescence models, we used Etoposide, Ras or H2O2 to induce senescence of IMR90 cells, and added UPCP to the cells treated with the drugs mentioned above when the cells just entered early stage senescence. […] Further work aimed at obtaining UPCPs with stronger stability, longer half-life and optimized physical structures are under planning. Therefore, UPCP may have broad application prospects in the treatment of HGPS.
SA-β-gal positive cells was calculated (c). Scale bars: 200 μm. d. Western blot analysis of Lamin B1, CyclinA2, IL-6 and p21 in senescent IMR90 cells with the indicated treatments. e,f.
Immunofluorescence analysis of Ki67 in IMR90 cells with the indicated treatment. Representative […]
≥ 200 cells. Scale bars: 50 μm. For bar and line graphs, data are presented as mean ± SD.
Statistical significance was determined in c and f using two-tailed unpaired Student’s t-test.
Supplementary Data Figure 2. UPCP delays Etoposide, Ras and H2O2 induced early stage cellular senescence. a. […]
and the percentage of the Ki67 positive cells was calculated (f), n ≥ 200 cells. […]
For bar and line graphs, data are presented as mean ± SD. Statistical significance was determined inc and f using two-tailed unpaired Student’s t-test.
A general note: In western blotting, separated proteins are transferred to a membrane and probed.

In series [4] the test system is senescent IMR90 cells. Description: Ki67 immunofluorescence of DNA damage-induced senescent IMR90 cells. The following applies: UPCP. On the procedure:
Fibroblasts from patients with HGPS were obtained from The Progeria Research Foundation Cell and Tissue Bank (http://www.progeriaresearch.org). The following fibroblasts were used: HGADFN003, HGADFN167, HGMDFN090 and HGFDFN168. Human dermal fibroblasts (GM00038 and AG09602) were obtained from Coriell Cell Repository (https://catalog.coriell.org). These cells were characterized by DNA fingerprinting and isozyme detection and were tested by a MycoBlue Mycoplasma Detector (Vazyme Biotech) to exclude mycoplasma contamination before the experiments. […] HGADFN003, HGADFN167, HGMDFN090, HGFDFN168, GM00038 and AG09602 were cultured in DMEM medium with 15% (v/v) fetal bovine serum (VivaCell). All cell lines were grown at 37 °C with 5% CO2 and IMR90, CRL-1474, HGADFN003, HGADFN167, HGMDFN090, HGFDFN168, GM00038 and AG09602 were cultured with 5% O2. For bleomycin-induced senescence, IMR90 cells were incubated with the culture medium containing 20 μg ml^–1 Bleomycin (Selleck, catalog no. S1214) for 2 h and analyzed 10 days later, or as otherwise indicated. For doxorubicin-induced senescence, IMR90 cells were treated twice with 100 nM Doxorubicin (Selleck, catalog no. S1208) with a 2 day interval and analyzed 10 days later, or as otherwise indicated. For ionizing radiation (IR)-induced senescence, IMR90 cells were exposed to 10 Gy Gamma rays, and analyzed 10 days later, or as otherwise indicated, the control IMR90 cells were mock irradiated. For etoposide-induced senescence, IMR90 cells incubated with the culture medium containing 10 μM Etoposide (Sigma, catalog no. E1383) for 48 h and analyzed 10 days later, or as otherwise indicated.
as §1

Series [5] concerns SAC signal response (p-H3). Kind of series: Western blot of p-H3 (SAC signal response), nocodazole-treated HGADFN003 cells. Particulars: nocodazole 200 ng ml^–1 with UPCP. As for the experimental part: Western blot was performed as previously described. Cells were lysed in 1× Laemmli sample buffer after washing twice in cold PBS without calcium and magnesium. Protein concentrations were determined using the bicinchoninic acid (BCA) protein assay. Protein lysates were subjected to SDS–PAGE, transferred to 0.45-μm pore size hydrophobic PVDF transfer membrane (Merck Millipore), detected with the appropriate primary antibodies coupled with horseradish peroxidase-conjugated corresponding secondary antibodies, and visualized using enhanced chemiluminescence ECL reagent (GE Healthcare). The Tanon 5500 high-definition low-illumination CCD system (Tanon FLI Capture v.1.02) was used to capture chemiluminescent signals.

Series [6] deals with PTBP1 in HGADFN003 cells. Kind of series: PTBP1 nuclear membrane localization in HGADFN003 cells. The following applies: HGADFN003, UPCP. On the procedure: as §1

Take “H-YGRKKRRQRRRYNLRSRTVLCGTCGQPADKASASGSGAQSPQNCSIM-OH (cysteines drawn unpaired) [UPCP, unique progerin C-terminal peptide]”: in series [1], the “time to cellular uptake” value is at most 2 h. The Ki67 positive cells was found to be 53% in series [2] (HGADFN167, replicate 1); 45% in series [2] (HGADFN167, replicate 2); 56% in series [2] (HGADFN167, replicate 3); 14.5% in series [4] (BLM (bleomycin 20 μg/mL 2 h), replicate 1); 18.5% in series [4] (BLM (bleomycin 20 μg/mL 2 h), replicate 2); 21.5% in series [4] (BLM (bleomycin 20 μg/mL 2 h), replicate 3). For the same substance, the Ki67 positive cells came out at 14% in series [4] (Dox (doxorubicin 100 nM twice), replicate 1); 22% in series [4] (Dox (doxorubicin 100 nM twice), replicate 2); 19% in series [4] (Dox (doxorubicin 100 nM twice), replicate 3); 18.5% in series [4] (Eto (etoposide 10 μM 48 h), replicate 1); 20% in series [4] (Eto (etoposide 10 μM 48 h), replicate 2); 14.5% in series [4] (Eto (etoposide 10 μM 48 h), replicate 3). In addition, the Ki67 positive cells is 19% in series [4] (IR (10 Gy), replicate 1); 15.5% in series [4] (IR (10 Gy), replicate 2); 17% in series [4] (IR (10 Gy), replicate 3). Further, the “etoposide-, ras- and H2O2-induced early stage cellular senescence” value in series [3] is “delayed etoposide-, ras- and H2O2-induced early stage cellular senescence modestly”. In series [5], the “SAC signal response (p-H3)” value is “repaired the SAC signal response”. Moreover, the “PTBP1 nuclear membrane location cells” value is given as 45% in series [6] (replicate 1), 39% in series [6] (replicate 2) and 35% in series [6] (replicate 3).
